Laboratory results from ChEMBL document CHEMBL1128149, “Molecular design of novel PGI2 agonists without PG skeleton. IV” (Bioorg Med Chem Lett, 1995).

Assays:
Homo sapiens = species on record: Homo sapiens; experiment: Compound was tested for its inhibitory activity against 4 uM ADP-induced platelet aggregation of human platelet rich plasma; format: functional
Prostacyclin receptor = Prostacyclin receptor (Homo sapiens, UniProt P43119); experiment: Compound was tested for its binding affinity against Prostaglandin I2 receptor using conventional ligand assay by the displacement of [3H]-iloprost from human platelets
Chain of Prostacyclin receptor (P43119 whole entry): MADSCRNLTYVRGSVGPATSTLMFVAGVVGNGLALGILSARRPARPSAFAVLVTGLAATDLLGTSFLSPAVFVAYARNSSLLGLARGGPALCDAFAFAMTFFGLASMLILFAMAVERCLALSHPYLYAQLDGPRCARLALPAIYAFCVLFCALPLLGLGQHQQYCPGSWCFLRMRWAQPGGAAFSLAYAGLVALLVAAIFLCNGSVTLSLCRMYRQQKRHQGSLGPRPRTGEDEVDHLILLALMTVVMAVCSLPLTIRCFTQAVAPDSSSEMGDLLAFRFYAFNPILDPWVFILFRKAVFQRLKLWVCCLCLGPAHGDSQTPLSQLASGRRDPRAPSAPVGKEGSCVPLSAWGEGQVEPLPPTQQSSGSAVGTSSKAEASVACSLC

Row | SMILES | IC50 (Homo sapiens; Homo sapiens, Plasma) [µM] | IC50 (Prostacyclin receptor) [µM] | IC50 (Homo sapiens) [µM]
1 | O=C(O)COc1cccc2c1CCC(CC1C=NC(C(c3ccccc3)c3ccccc3)=N1)C2 (stereo not drawn) | 12 |  | 
2 | O=C(O)COc1cccc2c1CCC=C2CCn1cc(C(c2ccccc2)c2ccccc2)cn1 | 8.6 | 2 | 
3 | O=C(O)COc1cccc2c1CCCC2CCn1cc(C(c2ccccc2)c2ccccc2)cn1 (stereo not drawn) | 0.093 | 0.018 | 
4 | O=C(O)COc1cccc2c1CCC(Cn1cc(C(c3ccccc3)c3ccccc3)cn1)C2 (stereo not drawn) |  | 0.04 | 0.53
5 | O=C(O)COc1cccc2c1CCC(Cn1cc(C(c3ccccc3)c3ccccc3)cn1)=C2 | 0.026 | 0.008 | 

Now from value to molecule:

Row | IC50 (Homo sapiens; Homo sapiens, Plasma) [µM] | IC50 (Prostacyclin receptor) [µM] | IC50 (Homo sapiens) [µM] | SMILES
6 |  |  | 5.1 | O=C(O)COc1cccc2c1CCC(Cc1nc(C(c3ccccc3)c3ccccc3)co1)C2 (stereo not drawn)
7 |  |  | 1 | O=C(O)COc1cccc2c1CCC(Cc1coc(C(c3ccccc3)c3ccccc3)n1)C2 (stereo not drawn)
8 | 0.67 |  |  | O=C(O)COc1cccc2c1CCC(Cn1cnc(C(c3ccccc3)c3ccccc3)c1)C2 (stereo not drawn)
9 |  |  | 1 | O=C(O)COc1cccc2c1CCC(CC1=NC(C(c3ccccc3)c3ccccc3)=NC1)C2 (stereo not drawn)
